# Test results taken from patent US10213451B2, “Methods and compounds for modulating the secretion or expression of adhesion proteins or angiopoietins of cells” (PACIFIC ARROW LIMITED, priority 2004, dated 2019).
# Test system: Hey8A cells attached to flasks
# Test: Inhibition of cell adhesion to flasks, Hey8A
# Type: cell-based, human
# Conditions: 5 ug/ml, 5 hours
# Description: (§1) Methods and Results. ES2 or Hey8A cells were plated in T25 flasks with medium containing 5 ug/ml of Xanifolia-Y. Cultures were incubated for 5 hours. Attached cells were removed from flasks by trypsinization and the amounts were counted. Compare to no drug controls, 86±4% of ES2 cells and 67±8% of Hey8A cells were found attached to flasks under this condition. At 5 ug/ml Xanifolia-Y, over 90% of unattached cells are alive as determined by the trypan Blue exclusion assay and by their ability to re-attach to flasks when plating in medium without Xanifolia-Y. However, with 10 ug/ml Xanifolia-Y, less than 40% of cells attached to flasks and many of them are dead cells.
# as §1, with “Results:” for “Results.”
structure (smiles),measurement,value
"C/C=C(/C)C(=O)O[C@H]1[C@H](OC(=O)/C(C)=C\C)[C@@]2(CO)C(CC1(C)C)C1=CCC3[C@@]4(C)CC[C@H](O[C@@H]5OC(C(=O)O)[C@@H](O)C(O[C@@H]6O[C@@H](CO)C(O)C6O)C5O[C@@H]5OC(CO)[C@H](O)C(O)C5O)C(C)(C)C4CC[C@@]3(C)[C@]1(C)[C@@H](O)[C@H]2O (stereo partly drawn) [Xanifolia-Y, 3-O-[β-D-galactopyranosyl (1→2)]-α-L-arabinofuranosy (1→3)-β-D-glucuronopyranosyl-21,22-O-diangeloyl-3β, 15α, 16α, 21β, 22α, 28-hexahydroxyolean-12-ene]","cells attached to flasks, compared to no drug controls",67±8%
